Results reported in patent US9365584B2, “Thieno [2,3-B] pyridinedione activators of AMPK and therapeutic uses thereof” (Poxel, priority 2009, dated 2016).

System: AMPK
Test: AMPK enzyme activity assay (Delfia technology, AMARA peptide substrate)
Format: biochemical
Details: compound at 30 μM vs AMP at 200 μM
Outline: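 Value is the ratio of compound (30 μM) to AMP (200 μM) response, each as % of basal control. Phosphorylation of the AMARA peptide after AMPK addition was read by Delfia with an anti-phosphoserine antibody.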

Activity: Ratio between the % of control (basal activity) of compound of formula (1) at 30 μM and the % of control (basal activity) of AMP (natural substrate) at 200 μM	Structure (SMILES)
A (0%<A<50%)	COc1c(-c2c(Cl)sc3c2C(=O)C(C)(c2ccccc2)C(=O)N3)ccc(F)c1F (centres unmarked) [No 13, 2-chloro-3-(3,4-difluoro-2-methoxy-phenyl)-5-methyl-5-phenyl-7H-thieno[2,3-b]pyridine-4,6-dione]
C (C≧75%)	Cc1cccc(-c2c(Cl)sc3c2C(=O)C(F)(c2ccccc2)C(=O)N3)c1O (centres unmarked) [No 213, 2-chloro-5-fluoro-3-(2-hydroxy-3-methyl-phenyl)-5-phenyl-7H-thieno[2,3-b]pyridine-4,6-dione]
B (50%≦B<75%)	COc1ccc(-c2c(Cl)sc3c2C(=O)C(F)(c2ccccc2)C(=O)N3)cc1 (centres unmarked) [No 81, 2-chloro-5-fluoro-3-(4-methoxyphenyl)-5-phenyl-7H-thieno[2,3-b]pyridine-4,6-dione]
A (0%<A<50%)	O=C1Nc2scc(-c3ccc(Br)cc3)c2C(=O)C1(F)c1ccccn1 (centres unmarked) [No 188, 3-(4-bromophenyl)-5-fluoro-5-(2-pyridyl)-7H-thieno[2,3-b]pyridine-4,6-dione]
A (0%<A<50%)	COc1ccc(C2(C)C(=O)Nc3sc(Cl)c(-c4cccc(OC)c4)c3C2=O)cc1 (centres unmarked) [No 43, 2-chloro-3-(3-methoxyphenyl)-5-(4-methoxyphenyl)-5-methyl-7H-thieno[2,3-b]pyridine-4,6-dione]
A (0%<A<50%)	COc1ccc(C2(C)C(=O)Nc3sc(Cl)c(-c4cccc(C)c4)c3C2=O)cc1 (centres unmarked) [No 155, 2-chloro-5-(4-methoxyphenyl)-5-methyl-3-(m-tolyl)-7H-thieno[2,3-b]pyridine-4,6-dione]
C (C≧75%)	Cc1ccc(-c2csc3c2C(=O)C(F)(c2ccccc2)C(=O)N3)c(O)c1 (centres unmarked) [No 121, 5-fluoro-3-(2-hydroxy-4-methyl-phenyl)-5-phenyl-7H-thieno[2,3-b]pyridine-4,6-dione]
B (50%≦B<75%)	O=C1Nc2sc(Cl)c(-c3ccccc3)c2C(=O)C1(F)c1cccc(C(F)(F)F)c1 (centres unmarked) [No 95, 2-chloro-5-fluoro-3-phenyl-5-[3-(trifluoro-methyl)phenyl]-7H-thieno[2,3-b]pyridine-4,6-dione]
B (50%≦B<75%)	COc1cc(-c2c(F)sc3c2C(=O)C(F)(c2ccccc2)C(=O)N3)ccc1C (centres unmarked) [No 114, 2,5-difluoro-3-(3-methoxy-4-methyl-phenyl)-5-phenyl-7H-thieno[2,3-b]pyridine-4,6-dione]
C (C≧75%)	COc1cccc(C2(C)C(=O)Nc3sc(Cl)c(-c4ccccc4C)c3C2=O)c1 (centres unmarked) [No 58, 2-chloro-5-(3-methoxyphenyl)-5-methyl-3-(o-tolyl)-7H-thieno[2,3-b]pyridine-4,6-dione]
C (C≧75%)	O=C1Nc2sc(Cl)c(-c3ccccc3F)c2C(=O)C1(F)c1ccccc1 (centres unmarked) [No 73, 2-chloro-5-fluoro-3-(2-fluorophenyl)-5-phenyl-7H-thieno[2,3-b]pyridine-4,6-dione]
A (0%<A<50%)	COc1ccc(C2(F)C(=O)Nc3scc(-c4ccccc4)c3C2=O)cc1 (centres unmarked) [No 167, 5-fluoro-5-(4-methoxyphenyl)-3-phenyl-7H-thieno[2,3-b]pyridine-4,6-dione]
A (0%<A<50%)	CC1(c2ccccc2)C(=O)Nc2scc(-c3ccc4ccccc4c3O)c2C1=O (centres unmarked) [No 8, 3-(1-hydroxy-2-naphthyl)-5-methyl-5-phenyl-7H-thieno[2,3-b]pyridine-4,6-dione]
A (0%<A<50%)	CCC1(c2ccccc2)C(=O)Nc2scc(-c3ccccc3)c2C1=O (centres unmarked) [No 11, 5-ethyl-3,5-diphenyl-7H-thieno[2,3-b]pyridine-4,6-dione]
C (C≧75%)	O=C1Nc2sc(Cl)c(-c3ccccc3)c2C(=O)C1(Cl)c1ccccc1 (centres unmarked) [No 222, 2,5-dichloro-3,5-diphenyl-7H-thieno[2,3-b]pyridine-4,6-dione]

Continued, molecule first:

Structure (SMILES)	Activity: Ratio between the % of control (basal activity) of compound of formula (1) at 30 μM and the % of control (basal activity) of AMP (natural substrate) at 200 μM
O=C1Nc2scc(-c3cccc(Br)c3)c2C(=O)C1(F)c1ccccc1 (centres unmarked) [No 163, 3-(3-bromophenyl)-5-fluoro-5-phenyl-7H-thieno[2,3-b]pyridine-4,6-dione]	B (50%≦B<75%)
CC1(c2cccc(F)c2)C(=O)Nc2sc(Cl)c(-c3cccc(F)c3)c2C1=O (centres unmarked) [No 103, 2-chloro-3,5-bis(3-fluorophenyl)-5-methyl-7H-thieno[2,3-b]pyridine-4,6-dione]	A (0%<A<50%)
COC1(c2ccccc2)C(=O)Nc2sc(Cl)c(-c3ccc(F)cc3O)c2C1=O (centres unmarked) [No 231, 2-chloro-3-(4-fluoro-2-hydroxy-phenyl)-5-methoxy-5-phenyl-7H-thieno[2,3-b]pyridine-4,6-dione]	C (C≧75%)
COc1cccc(C2(C)C(=O)Nc3sc(Cl)c(-c4ccccc4F)c3C2=O)c1 (centres unmarked) [No 76, 2-chloro-3-(2-fluorophenyl)-5-(3-methoxyphenyl)-5-methyl-7H-thieno[2,3-b]pyridine-4,6-dione]	A (0%<A<50%)
Cc1cccc(-c2csc3c2C(=O)C(F)(c2ccccc2)C(=O)N3)c1 (centres unmarked) [No 136, 5-fluoro-3-(m-tolyl)-5-phenyl-7H-thieno[2,3-b]pyridine-4,6-dione]	B (50%≦B<75%)
COc1ccccc1-c1c(Cl)sc2c1C(=O)C(F)(c1ccccc1)C(=O)N2 (centres unmarked) [No 98, 2-chloro-5-fluoro-3-(2-methoxyphenyl)-5-phenyl-7H-thieno[2,3-b]pyridine-4,6-dione]	A (0%<A<50%)
O=C1Nc2scc(-c3ccc(O)cc3)c2C(=O)C1(F)c1ccccc1 (centres unmarked) [No 203, 5-fluoro-3-(4-hydroxyphenyl)-5-phenyl-7H-thieno[2,3-b]pyridine-4,6-dione]	C (C≧75%)
COc1cccc(-c2c(F)sc3c2C(=O)C(F)(c2ccccc2)C(=O)N3)c1 (centres unmarked) [No 206, 2,5-difluoro-3-(3-methoxyphenyl)-5-phenyl-7H-thieno[2,3-b]pyridine-4,6-dione]	C (C≧75%)
O=C1Nc2sc(F)c(-c3ccc(Cl)cc3)c2C(=O)C1(F)c1ccccc1 (centres unmarked) [No 173, 3-(4-chlorophenyl)-2,5-difluoro-5-phenyl-7H-thieno[2,3-b]pyridine-4,6-dione]	B (50%≦B<75%)
Cc1ccc(-c2c(Cl)sc3c2C(=O)C(F)(c2cccc(C#N)c2)C(=O)N3)cc1C (centres unmarked) [No 217, 3-[2-chloro-3-(3,4-dimethylphenyl)-5-fluoro-4,6-dioxo-7H-thieno[2,3-b]pyridin-5-yl]benzonitrile]	C (C≧75%)
Cc1cccc(C2(C)C(=O)Nc3sc(Cl)c(-c4ccccc4C)c3C2=O)c1 (centres unmarked) [No 59, 2-chloro-5-methyl-5-(m-tolyl)-3-(o-tolyl)-7H-thieno[2,3-b]pyridine-4,6-dione]	C (C≧75%)
O=C1Nc2scc(-c3ccccc3)c2C(=O)C1(F)c1ccccc1 (centres unmarked) [No 100, 5-fluoro-3,5-diphenyl-7H-thieno[2,3-b]pyridine-4,6-dione]	B (50%≦B<75%)
Cc1cccc(C2(F)C(=O)Nc3sc(Cl)c(-c4ccc(C)c(C)c4)c3C2=O)c1 (centres unmarked) [No 186, 2-chloro-3-(3,4-dimethylphenyl)-5-fluoro-5-(m-tolyl)-7H-thieno[2,3-b]pyridine-4,6-dione]	C (C≧75%)
O=C1Nc2sc(Cl)c(-c3ccc(F)cc3O)c2C(=O)C1(F)c1ccsc1 (centres unmarked) [No 226, 2-chloro-5-fluoro-3-(4-fluoro-2-hydroxy-phenyl)-5-(3-thienyl)-7H-thieno[2,3-b]pyridine-4,6-dione]	C (C≧75%)
O=C1Nc2sc(Cl)c(-c3cccc(F)c3)c2C(=O)C1(F)c1ccccc1 (centres unmarked) [No 157, 2-chloro-5-fluoro-3-(3-fluorophenyl)-5-phenyl-7H-thieno[2,3-b]pyridine-4,6-dione]	C (C≧75%)
O=C1Nc2scc(-c3cccc(F)c3)c2C(=O)C1(F)c1ccccc1 (centres unmarked) [No 190, 5-fluoro-3-(3-fluorophenyl)-5-phenyl-7H-thieno[2,3-b]pyridine-4,6-dione]	B (50%≦B<75%)
Cc1ccc(-c2c(Cl)sc3c2C(=O)C(C)(c2cccc(F)c2)C(=O)N3)cc1 (centres unmarked) [No 45, 2-chloro-5-(3-fluorophenyl)-5-methyl-3-(p-tolyl)-7H-thieno[2,3-b]pyridine-4,6-dione]	A (0%<A<50%)
